{"source": "paper PMC7997369", "about": "“Assessment of the Multifunctional Behavior of Lupin Peptide P7 and Its Metabolite Using an Integrated Strategy” (Journal of Agricultural and Food Chemistry, 2020)", "key": {"ACE": {"tested_on": "ACE", "conditions": "cited from earlier work; for in vitro ACE inhibitory activity at 0.5 mg/mL: hempseed hydrolysate peptides", "description": "(§1) Moreover, when orally administered to spontaneously hypertensive rats (SHRs) at a dose of 30 mg/kg of body weight, LTFPG produces a fast and efficient decrease in systolic blood pressure with a maximum of −37 mmHg after 2 h. […] In particular, these phenomena have been invocated to explain the discrepancy observed between in vitro assays and in vivo results. For example, there are many reports in the literature on the ACE inhibitory activity of different food-derived peptides.[32] In all of these studies, the biochemical characterization is carried out using tests on the purified recombinant ACE enzymes from lung ..."}, "[1]": {"tested_on": "spontaneously hypertensive rats (SHRs)", "conditions": "cited from earlier work", "description": "as §1"}, "[2]": {"tested_on": "differentiated Caco-2 cell monolayers", "assay": "Transepithelial transport and metabolism across differentiated Caco-2 cell monolayers", "type": "in vitro ADME, human", "conditions": "AP solutions of differentiated Caco-2 collected after 120 min; untargeted HPLC–Chip–MS/MS; × = detected", "description": "For differentiation, Caco-2 cells were seeded on polycarbonate filters with a 12 mm diameter and 0.4 μm pore diameter (Transwell, Corning, Inc., Lowell, MA, U.S.A.) at a 3.5 × 10^5 cells/cm^2 density in complete medium supplemented with 10% FBS in both AP and BL compartments for 2 days to allow for the formation of a confluent cell monolayer. Starting from day 3 after seeding, cells were transferred to FBS-free medium in both compartments, supplemented with ITS [final concentration of 10 mg/L insulin (I), 5.5 mg/L transferrin (T), and 6.7 μg/L sodium selenite (S), GIBCO–Invitrogen, San Giuliano Milanese, Italy] only in the BL compartment, and allowed to differentiate for 18–21 days with regular medium changes 3 times weekly.[12]\nThe transepithelial electrical resistance (TEER) of differentiated Caco-2 cells was measured at 37 °C using the voltmeter apparatus Millicell (Millipore Co., Billerica, MA, U.S.A.), immediately before and at the end of the transport experiments. In addition, at the end of transport experiments, cells were incubated from the AP side with 1 mM phenol red in phosphate-buffered saline (PBS) containing Ca^2+ (0.9 mM) and Mg^2+ (0.5 mM) for 1 h at 37 °C, to monitor the paracellular permeability of the cell monolayer. The BL solutions were then collected, and NaOH (70 μL, 0.1 N) was added before reading the absorbance at 560 nm by a microplate reader Synergy H1 from Biotek (Winooski, VT, U.S.A.). Phenol red passage was quantified using a standard phenol red curve. Only filters showing TEER values and phenol red passages similar to untreated control cells were considered for peptide transport analysis.\nPrior to experiments, the cell monolayer integrity and differentiation were checked by TEER measurement as described in detail above. Cells were then washed twice, and peptide transportation by intestinal cells was assayed. Transport experiments were performed in transport buffer solution (137 mM NaCl, 5.36 mM KCl, 1.26 mM CaCl2, 1.1 mM MgCl2, and 5.5 mM glucose) following conditions previously described.[13] To reproduce the pH conditions existing in vivo in the small intestinal mucosa, AP solutions were maintained at pH 6.0 (buffered with 10 mM morpholinoethanesulfonic acid) and BL solutions were maintained at pH 7.4 (buffered with 10 mM N-2-hydroxyethylpiperazine-N-4-[…]). Prior to transport experiments, cells were washed twice with 500 μL of PBS containing Ca^2+ and Mg^2+. Peptide transportation by mature Caco-2 cells was assayed by loading the AP compartment with P7 and/or LTFPG (500 μM) in the AP transport solution (500 μL) and the BL compartment with the BL transport solution (700 μL). The plates were incubated at 37 °C, and the BL solutions were collected at different time points (i.e., 15, 30, 60, 90, and 120 min) and replaced with fresh solutions prewarmed at 37 °C. All BL solutions together with the AP solutions collected at the end of the transport experiment were stored at −80 °C prior to analysis. Three independent transport experiments were performed, each in duplicate.\nQuantitative analysis of P7 in the AP and BL samples were carried out by ion trap mass spectrometry (MS) in multiple reaction monitoring (MRM) mode, monitoring two of the most intense diagnostic transitions, after optimization of the acquisition parameters, such as retention time, MS profile, and tandem mass spectrometry (MS/MS) fragmentation spectrum.[14],[15] All further details regarding liquid chromatography–tandem mass spectrometry (LC–MS/MS) operating conditions and method validations are described in the Supporting Information.\nThe metabolic degradation products deriving from the hydrolytic activity of brush border membrane peptidases were investigated by an untargeted approach (for further details, see the Supporting Information). […]"}}, "data": [{"substance": "FKGRYYP [peptide from meat-derived hydrolysates obtained using thermolysin]", "values": [{"measurement": "IC50", "setting": "ACE; peptides from meat-derived thermolysin hydrolysates, read-out: IC50, in vitro ACE activity", "value": 550, "unit": "nM"}, {"measurement": "effect in vivo on SHRs", "setting": "[1]", "value": "totally ineffective"}]}, {"substance": "IPAGV", "values": [{"measurement": "in vitro ACE inhibitory activity at 0.5 mg/mL", "setting": "ACE", "value": 60.0, "unit": "%"}, {"measurement": "reduction of the BP of SHR", "setting": "[1]", "value": "−40.0", "unit": "mmHg"}]}, {"substance": "SVYT", "values": [{"measurement": "in vitro ACE inhibitory activity at 0.5 mg/mL", "setting": "ACE", "value": 79.0, "unit": "%"}]}, {"substance": "TFPGSAED [AP metabolite of P7 produced by Caco-2 cells, attributed to leucine aminopeptidase]", "values": [{"measurement": "detected at the AP side, P7 tested within a mixture", "setting": "[2]", "value": "×"}]}]}
